Data on four molecules can be found in US5594009A, “Fused pyrrolocarbazoles” (priority 1995, dated 1997).

Test [1] deals with indoleamine 2,3-dioxygenase (IDO) mRNA in THP-1 cells. In words: Inhibition of Induction By IFNγ of IDO mRNA. Format: cell-based. The note with it: Homo sapiens, IDO/GAPD mRNA ratio, 48 hours, read-out: IDO mRNA, Phosphorimager units, % of IFNγ-treated cells; for mrna remaining at 0.4 µM: compound 400 nM, IFNγ 400 units/ml. How it is done:
Fused pyrrolocarbazoles in accordance with our invention were tested for their ability to inhibit the induction by IFNγ of indoleamine 2,3-dioxygenase (IDO) mRNA in THP-1 cells, a human monocyte cell line.
Cell Culture: THP-1 cells (American Type Culture Collection, Rockville, Md.), a human monocytic leukemia cell line, were grown in RPMI 1640 medium (Mediatech, Herndon Valley, Va.) with 50 μM 2-mercaptoethanol and 10% fetal bovine serum. Cells were plated in T75 culture flasks, at 4×10^4 cells/cm^2 in 10 ml of medium, and were immediately treated with fused pyrrolocarbazoles at various concentrations. After 30 minutes recombinant (E. coli) IFNγ (Boehringer Mannheim Corporation,Indianapolis, Ind.) was added at 200-400 units/ml. Cells were incubated (37° C., 5% CO2 /95% Air) for 48 hours after treatment.
RNA Isolation: Cells were pelleted by centrifugation (50× g, 7 min.) and medium was decanted. The cells were then washed two times with phosphate buffered saline pH 7.2 (PBS) (Mediatech, Herndon Valley, Va.). The washed cell pellet was lysed in 2 ml RNAzol B (Tel-Test, Inc., Friendswood, Tex.). RNA was isolated by chloroform extraction, precipitated, and washed following the "RNAzol B isolation of RNA" protocol accompanying this product. RNA was then solubilized in H2 O, and the concentration and purity were determined by reading the absorbance at A260 nm and A280 nm. Finally, the RNA was reprecipitated in ethanol, overnight at -20° C.
cDNA Probes: Indoleamine 2,3-dioxygenase (IDO) cDNA was received from Sohan L. Gupta, Ph. D. (Hipple Cancer Research Center, Dayton, Ohio) (see Da., W. & Gupta, S. L. 168 Biochem. Biophys. Res. Commun. 1, 1990 and Hassanain, H. H. et al. 268 J. Biol. Chem. 5077, 1993). Glyceraldehyde-3-phosphate dehydrogenase (GAPD) cDNA was obtained through American Type Culture Collection (Rockville, Md.). These cDNA's were produced and purified using standard methods (see, Sambrook, Fritsch, Maniatis (1989) Molecular Cloning a Laboratory Manual/Second Edition 1, 1.21-1.24, 1.74-1.81, hereinafter in this Example, "Maniatis a") using Qiagen plasmid purification kits (Qiagen Inc., Chatsworth, Calif.). DNA concentration and purity were determined by absorbance at 280 nm and 260 nm. Specific DNA inserts were cut out by standard methods using restriction enzymes, and subsequently separated on agarose gels as in Maniatis (see, Sambrook, Fritsch, Maniatis (1989) Molecular Cloning a Laboratory Manual/Second Edition 1, 6.9-6.15, hereinafter in this Example, "Maniatis b"). cDNA probes were further purified for [^32 P] labeling using the Geneclean II DNA purification kit (BIO 101, Inc., La Jolla, Calif.). Probes were labeled with dCTP-α-^32 P (Amersham Corp., Arlington Heights, Ill.) by random primer labeling, using the Prime-a-GeneLabeling System (Promega Corp., Madison, Wis.).
Analysis and quantification of mRNA: IDO mRNA was detected by Northern blot analysis (see Maniatis a, p. 7.39-7.51) using standard methods. […] Quantification of IDO mRNA was carried out using a phosphorimager (Molecular Dynamics) in which density (i.e., amount of RNA) is expressed as relative phosphorimager units. […] GAPD mRNA measurement by phosphorimager quantification of Northern blots serves as a means to normalize for potential sample to sample differences in the amount of total RNA loaded on gels. […]

A further test concerns the target protein kinase C. In words: PKC Activity Inhibition Assay. The test is classed as biochemical. How it is done: Fused pyrrolocarbazoles inhibited the activity of protein kinase C (Table VI). The protein kinase C assay has been disclosed (Murakata et al., U.S. Pat. No. 4,923,986; Kikkawa et al., J. Biol. Chem. 257:13341-13348 (1982)). The assay was performed with several concentrations of fused pyrrolocarbazoles. The concentration at which protein kinase C was 50% inhibited (IC50) was determined.

Test [2] deals with choline acetyltransferase (ChAT) activity in dissociated rat embryonic spinal cord culture. Kind of test: Spinal Cord ChAT Activity Assay. Format: cell-based. The settings on record: ChAT measured after 48 hours.
Procedure: In these assays, a fused pyrrolocarbazole was directly added to a dissociated spinal cord culture. […] The fused pyrrolocarbazole was added on the same day the dissociated spinal cord cell culture was initiated.
Methods: Fetal rat spinal cord cells were dissociated, and experiments were performed as described (Smith et al., J. Cell Biology., 101:1608-1621 (1985); Glicksman et al., J. Neurochem. 61:210-221 (1993)). Dissociated cells were prepared from spinal cords dissected from rats (embryonic day 14-15) by standard trypsin dissociation techniques (Smith et al., J. Cell Biology 10:1608-1621 (1985)). Cells were plated at 6×10^5 cells/cm^2 on poly-1-ornithine coated plastic tissue culture wells in serum-free N2 medium supplemented with 0.05% bovine serum albumin (BSA) (Bottenstein et al., PNAS USA 514-517 (1979)). Cultures were incubated at 37° C. in a humidified atmosphere of 5% CO2 /95% air for 48 hours. ChAT activity was measured after 2 days it vitro using a modification of the Fonnum procedure (Fonnum, J. Neurochem. 24:407-409 (1975)) according to McManaman et al. and Glicksman et al. (McManaman et al., Developmental Biology 125:311-320 (1988); Glicksman et al., J. Neurochem. 61:210-221 (1993)).
The next test relates to AT-2 cells. In words: Inhibition of Growth of Prostate Cancer Cell Line (MTS assay). The settings on record: 72 h; 3 days, MTS; read-out: AT-2 cell growth IC50. The test is classed as cell-based. How it is done: AT-2 cells are a prostate cancer cell sub-line derived from the Dunning H tumor, graciously provided to us by Dr. John Isaacs (John Hopkins, M. D.). Unlike the Dunning H tumor cells, AT-2 cells can be grown in vitro.
Methods: At-2 cells ([…]) were plated on tissue culture plastic in 96-well plates in the presence of RPMI-1640 medium containing 10% fetal calf serum, 250 nM dexamethasone, 2 mM glutamine, 1 mM sodium pyruvate, and penicillin/streptomycin antibiotics. The next day, compounds were added at 4 concentrations (10, 1, 0.1, 0.01 μM) to determine the approximate IC50 range. Cultures were assayed 3 days later for cell number using the MTS [(3-(4,5-dimethylthiazol-2-yl)-5-(3-carboxymethoxyphenyl)-2-(4-sulfophenyl)-2H-tetrazolium, inner salt)] assay. The MTS assay (purchased as a kit from Promega) measures the formation of an aqueous soluble formazan (detected by a plate reader at 490nm) produced by the bioreduction of a tetrazolium compound (MTS) in metabolically active cells via mitochondrial succinate dehydrogenase. After determining linearity of the substrate incubation time over a range of cell plating densities, the amount of product measured is directly proportional to cell number. MTS (333 ug/ml) and 25 μM phenazine methosulfate are mixed and added directly to the culture medium, and incubated at 37° C. in the 5% CO2 /95% air incubator for 0.5-4 h. Absorbance of the product at 490 nm is read on the BIO-TEK plate reader. Background values were obtained from wells containing culture medium with substrate solution, but no cells. In addition, values were also obtained from wells containing cells plated at day 0 and assayed on the day compound was added (day 1) in order to determine the number of cells at the time compound was added. After the initial dose-finding experiment was completed, subsequent experiments were set up so that there were 3 or more concentrations near the predicted IC50.

Test [3] concerns ChAT activity of basal forebrain cultures. Kind of test: Basal Forebrain ChAT Activity Assay. The settings on record: Rattus norvegicus, 120 h, read-out: ChAT Activity (% of Control). The test is classed as cell-based, rat. The essentials:
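Basal forebrain neurons from E17–18 rat embryos were Dispase-dissociated and plated at 5×10^4 cells/well on poly-ornithine/laminin. Cultures were kept in serum-free N2 medium with 0.05% BSA at 37° C. ChAT activity was measured 5 days after plating as the read-out for compound-induced increase.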

The target in a further test is trkA tyrosine kinase (Homo sapiens, UniProt P04629). In words: trkA Tyrosine Kinase Activity Inhibition Assay (ELISA). Format: biochemical. The settings on record: 16 μM ATP, 37° C., 15 min; read-out: INHIBITION OF trkA KINASE IC50. (ELISA stands for enzyme-linked immunosorbent assay.)
For another test, the system named is chick DRG neurons. In words: DRG Neuron Survival Assay (calcein AM). The settings on record: Gallus gallus, DRG neuron, 48 hours, read-out: Neuronal Survival (% of Control). Format: cell-based. How it is done:
Fused pyrrolocarbazoles promoted dorsal root ganglion (DRG) neuronal survival in cultures of chick DRG neurons. Cell survival was measured by uptake of calcein AM, an analog of the viable dye, fluorescein diacetate. Calcein is taken up by viable cells and cleaved intracellularly to fluorescent salts which are retained by intact membranes of viable cells. Microscopic counts of viable neurons correlate directly with relative fluorescence values obtained with the fluorimetric viability assay. This method thus provides a reliable and quantitive measurement of cell survival in the total cell population of a given culture (Bozyczko-Coyne et al., J. Neur. Meth. 50:205-216, 1993).
Methods: Dorsal root ganglia were dissected from embryonic age day 9 chick embryos and dissociated cells prepared by subsequent Dispase (neutral protease, Collaborative Research) dissociation. Neurons were seeded at low density (3×10^4 cells/cm^2) into 96 well poly-L-ornithine and laminin coated plates. Cells were cultured for 48 hours in serum-free N2 medium (Bottenstein and Sato, 1979) at 37° C. in a humidified atmosphere, 5% CO2 /95% air. Cell survival was assessed at 48 hours using the viable fluorimetric assay described above.

Test [4] has as its system lumbar motoneurons of chick embryos. Kind of test: Inhibition of Motoneuron Death In Ovo. Format: in vivo. The settings on record: for Number of motoneurons mean ± SD / % of motoneurons rescued versus control: E6-E9; for Number of motoneurons mean ± SD: one side of spinal cord.
Procedure: The samples (50 ul) were applied to the vascularized chorioallantoic membrane through a window in the egg shell as previously described (Oppenheim et al., 1988). Embryos were sacrificed on E10 and spinal cords were removed, fixed in Carnoy's solution (10% acetic acid, 60% ethanol, 30% chloroform), embedded in paraffin, sectioned at 8 um, and stained with thionin as described previously (Oppenheim et al., 1988). Motoneurons (identified by morphology and position) were counted by an individual blind to the treatment conditions in every tenth section according to previously established criteria (Oppenheim et al., 1982, Oppenheim, 1986).

trkA tyrosine kinase, sequence (P04629 33-796): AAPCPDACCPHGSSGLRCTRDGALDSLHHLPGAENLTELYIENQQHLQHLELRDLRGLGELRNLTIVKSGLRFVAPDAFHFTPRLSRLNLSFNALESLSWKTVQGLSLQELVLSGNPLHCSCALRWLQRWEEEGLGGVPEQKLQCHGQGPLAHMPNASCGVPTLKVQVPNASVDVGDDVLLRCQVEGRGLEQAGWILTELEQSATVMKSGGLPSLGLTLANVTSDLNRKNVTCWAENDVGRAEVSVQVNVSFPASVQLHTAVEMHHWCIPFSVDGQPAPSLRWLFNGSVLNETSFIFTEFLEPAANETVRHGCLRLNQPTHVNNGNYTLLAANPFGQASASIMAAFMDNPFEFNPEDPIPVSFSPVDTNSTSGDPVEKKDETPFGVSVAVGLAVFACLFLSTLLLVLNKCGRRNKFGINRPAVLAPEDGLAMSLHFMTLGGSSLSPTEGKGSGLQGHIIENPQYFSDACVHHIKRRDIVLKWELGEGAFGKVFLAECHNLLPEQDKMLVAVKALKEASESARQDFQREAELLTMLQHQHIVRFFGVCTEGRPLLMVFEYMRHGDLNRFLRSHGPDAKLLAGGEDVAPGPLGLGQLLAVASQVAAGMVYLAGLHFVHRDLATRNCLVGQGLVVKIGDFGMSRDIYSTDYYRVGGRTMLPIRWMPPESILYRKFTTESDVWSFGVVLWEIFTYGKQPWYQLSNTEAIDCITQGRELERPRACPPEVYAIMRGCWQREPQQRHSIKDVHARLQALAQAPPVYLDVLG

In general, IC50 refers to the midpoint of a concentration-inhibition curve. Consider `O=C1NCc2c1c1c(c3[nH]c4ccc(Br)cc4c23)Cc2ccccc2-1` [Compound I-9, 3-Bromo-5H, 6H, 12H, 13H-indeno[2,3-a]pyrrolo[3,4-c]carbazole-7(7H)one], for which, in test [1], the mrna remaining at 0.4 µM was 60%. This molecule showed an IC50 against protein kinase C of 4500 nM. The “Spinal Cord ChAT Activity, % of Control, untreated cultures” value (“Spinal Cord ChAT Activity, % of Control” for short) in test [2] was 185 % of Control.

Consider `O=C1NCc2c3c(c4[nH]c5ccc(Br)cc5c4c21)Cc1ccccc1-3` [Compound I-11, 3-Bromo-6H, 7H, 12H, 13H -indeno[2,3-a]pyrrolo[3,4-carbazole-5(5H)one], for which, in test [1], the mrna remaining at 0.4 µM was 49%. Besides, the IC50 on protein kinase C was 450 nM. In addition, the “Spinal Cord ChAT Activity, % of Control” value in test [2] was 188 % of Control.

Consider `O=C1NCc2c1c1c(c3c2c2ccccc2n3CCO)Cc2ccccc2-1` [Compound I-29, 13-(2-Hydroxyethyl)-5H,6H,12H,13H-indeno[2,3-a]pyrrolo[3,4-c]carbazole-7(7H)one], for which the IC50 with AT-2 cells is 3260 nM; at protein kinase C, 40 nM; on trkA tyrosine kinase it was 18.4 nM. The mrna remaining at 0.2 µM in test [1] (compound 200 nM, IFNγ 200 units/ml) turned out to be 57%. Further, in test [3] (100 nM), the activity at 0.1 µM is 140%. In addition, the activity at 0.25 µM in test [3] (250 nM) is 189%. Further, in test [3] (500 nM), the activity at 0.5 µM was 194%. Further, the activity at 1 µM in test [3] (1000 nM) stood at 210%. Also, the “Spinal Cord ChAT Activity, % of Control” value in test [2] is listed as 154 % of Control.

Take `O=C1NCc2c1c1c(c3[nH]c4ccc(C=Cc5ccccn5)cc4c23)Cc2ccccc2-1` [Compound I-32, 3-(2-Pyridinylethenyl)-5H,6H,12H,13H-indeno[2,3-a]pyrrolo[3,4-c]carbazole-7(7H)-one]: in test [1], the mrna remaining at 0.4 µM was 70%. In addition, the viability at 0.1 µM in the test with chick DRG neurons (100 nM) is 173%. In addition, in the test on chick DRG neurons (250 nM), the viability at 0.25 µM was 164%. Also, the viability at 0.5 µM in the test on chick DRG neurons (500 nM) is 151%. Moreover, the “Number of motoneurons mean ± SD” value in test [4] (0.06 ug/egg daily) was found to be 9657 ± 529; in test [4] (0.3 ug/egg daily), 10215 ± 481; in test [4] (0.6 ug/egg daily), 12357 ± 499; in test [4] (1.2 ug/egg daily), 11743 ± 1497. Moreover, the entries for the “% of motoneurons rescued versus control” value in test [4] (0.3 ug/egg daily), in test [4] (0.6 ug/egg daily) and in test [4] (1.2 ug/egg daily) were 8%, 31% and 24%, respectively. In test [4] (0.6 ug/egg, vehicle-treated control), the “increase in motoneuron survival in treated vs. control embryos, maximal effect” value stood at 31%. Moreover, the “dose at which the maximal effect was achieved” value in test [4] (daily dose) is listed as 0.6 ug/egg. The IC50 on trkA tyrosine kinase is more than 1000 nM. In addition, the “Spinal Cord ChAT Activity, % of Control” value in test [2] was 288 % of Control.
